One substance from US10238710B2, “Peptide having anti-inflammatory, osteogenic and hair growth promoting activities, and use of same” (CAREGEN CO., LTD., priority 2014, dated 2019) can be followed below.

Assay [1] deals with human hair follicle germinal matrix cells (HFGMC). The assay is described as follows: Cell proliferation assay (SRB), HFGMC. The assay is classed as cell-based. Particulars: 1, 10 and 50 μg/ml, 72 hours. How it is done:
(§1) In order to observe the cell proliferation effect on human hair follicle dermal papilla cells, human hair follicle germinal matrix cells, and human umbilical vein endothelial cells, which are main hair cells, each type of cells were seeded on a 96-well plate at a density of 3×10^3 cells/well, followed by incubation under conditions of 37° C. and 5% CO2 for 24 hours. After the medium was exchanged with the same culture medium completely excluding serum, the cells were treated with the peptides at different concentrations (1 μg/ml, 10 μg/ml, and 50 μg/ml), followed by incubation under the same conditions for 72 hours. After the incubation supernatant was removed, the cells were immobilized using ethanol, and washed three times with phosphate buffer saline (PBS). The wash solution was removed, and the cells were stained through the treatment with colorimetric SRB solution. After the cells were sufficiently washed with 1% acetic acid, the cells were observed using a microscope to observe the state of living cells. The absorbance was read at UV light of 560 nm, thereby measuring the survival conditions of cells

The next assay concerns NF-κB. The assay can be described thus: Western blotting in HaCaT cells, nuclear translocation of NF-κB activated by TNF-α. The following applies: peptide at different concentrations. In kind it is cell-based, human.
In the next assay the test system is bone sialoprotein (BSP). The assay can be described thus: RT-PCR of osteogenic differentiation marker BSP. In kind it is cell-based, mouse. The following applies: MC3T3-E1, three days.
In assay [2] the test system is human hair follicle dermal papilla cells (HFDPC). The assay can be described thus: Cell proliferation assay (SRB), HFDPC. The assay is classed as cell-based. Particulars: 1, 10 and 50 μg/ml, 72 hours. How it is done: as §1
The test system of a further assay is DKK-1. The assay is described as follows: Western blotting of DKK-1 with hair loss causing hormone DHT. The assay is classed as cell-based, human. The following applies: HFDPC, 5 μg/ml DHT together with peptide 1 and 10 μg/ml, 48 hours. As for the experimental part:
The cells were treated with DHT and the peptides for 48 hours, and then subjected to western blotting with respect to DKK-1 using specific antibodies, thereby observing the expression of DKK-1.
The human hair follicle dermal papilla cells were seeded on a 6-well plate at a density of 1×10^5 cells/well. The cells were stabilized by incubation overnight, and then treated with 5 μg/ml DHT (Sigma Aldrich) together with the peptides at different concentrations (1 μg/ml and 10 μg/ml) for 48 hours. The cells were treated with the cell lysis buffer to obtain a lysate, followed by protein quantification, and then western blotting was performed with respect to DKK-1 using anti-DKK-1 antibody (Santa Cruz Biotechnology, USA).
A general note: In western blotting, separated proteins are transferred to a membrane and probed.

A further assay deals with Phospho-ERK (pERK). The assay is described as follows: Western blotting of cell signaling material, ERK phosphorylation. In kind it is cell-based, human. The following applies: HFDPC, 1 and 10 μg/ml, 30 minutes and 60 minutes. As for the experimental part:
(§2) In order to observe the changes in the phosphorylation of ERK and the expression of PI3K, which are main signaling materials involved in cell proliferation in the human hair follicle dermal papilla cells, the cells were treated with the peptides of the present invention for 30 minutes and 60 minutes, and then subjected to western blotting using specific antibodies, thereby observing the pERK and PI3K changes. The test was carried out using anti-pERK antibody (Santa Cruz Biotechnology, USA) and anti-pPI3K antibody (Santa Cruz Biotechnology, USA).
(§3) The cells were treated with the cell lysis buffer to obtain a lysate, followed by protein quantification, and then western blotting was performed with respect to Phospho-ERK (pERK), PI3K, and β-catenin.

The next assay has as its system RAW264.7 cells. The assay can be described thus: Proliferation assay of macrophages treated with TNF-α (SRB). The following applies: 100 ng/ml TNF-α and 50 μg/ml peptide, 72 hours. The assay is classed as cell-based, mouse. As for the experimental part: The mouse macrophage cell line, raw 264.7 cells were seeded on a 48-well plate at a density of 1×10^4 cells/well. After stabilization for 24 hours, the cells were incubated in a serum-free medium for 6 hours, and then simultaneously treated with 100 ng/ml TNF-α and 50 μg/ml peptide, followed by incubation for 72 hours. After the completion of the incubation, the supernatant was removed and the cells were immobilized using ethanol, and after the cell immobilization was ended, the cells were washed three times with phosphate buffer saline (PBS). After the wash solution was removed, the cells were treated with colorimetric SRB solution, and sufficiently washed with 1% acetic acid. Then, the cells were observed using a microscope to observe the conditions of living cells. The absorbance for the solution decolorized with 20 mM tris was read at UV light of 560 nm, thereby measuring the survival conditions of cells.

Another assay concerns Phospho-PI3K. The assay is described as follows: Western blotting using osteoblasts (PI3K phosphorylation). In kind it is cell-based. The following applies: mouse osteoblast line, 50 μg/ml, 15 minutes. As for the experimental part: The cells were treated with the peptides at 50 μg/ml for 15 minutes (positive control: HGF 50 ng/ml). The cells were treated with the cell lysis buffer to obtain a lysate, followed by protein quantification, and then western blotting was performed with respect to Phospho-PI3K (P-PI3K) using anti-pPI3K antibody (Santa Cruz Biotechnology, USA).

Assay [3] relates to human umbilical vein endothelial cells (HUVEC). The assay can be described thus: Cell proliferation assay (SRB), HUVEC. In kind it is cell-based. Particulars: 1, 10 and 50 μg/ml, 72 hours. As for the experimental part:
as §1

The subject of the next assay is MC3T3-E1 cells. The assay is described as follows: Alizarin red staining (mineralization) of MC3T3-E1 cells. Particulars: MC3T3-E1, 10 and 50 μg/ml, 14 days. In kind it is cell-based, mouse. As for the experimental part:
Here, the medium exchange every three days and the treatment with the peptide were repeated (positive control: 30 ng/ml rhBMP2 (Cell signaling)). After the completion of the incubation, the plate well was washed two times with PBS, and the cells were immobilized by the treatment with 70% EtOH for 1 hour. Then, the cells were stained with 40 mM Alizarin red S (pH 4.2, Sigma Aldrich) for 10 minutes. The cells were treated with 10% cetyl pyridinium chloride (dissolved in 10 mM sodium phosphate (pH 7.0)) for 15 minutes, and then the absorbance was read at 560 nm using a spectrophotometer (SpectraMax, Molecular Devices).

The next assay deals with PI3K. The assay can be described thus: Western blotting of cell signaling material, PI3K. In kind it is cell-based, human. The following applies: HFDPC, 1 and 10 μg/ml, 30 minutes and 60 minutes. As for the experimental part: as §2, §3
Another assay has as its system IGF-1. The assay can be described thus: Western blotting of hair growth protein IGF-1. In kind it is cell-based, human. The following applies: HFDPC, 0.1-50 μg/ml, 24 hours. How it is done: In order to observe the changes in the expression of IGF1, KGF, and Wnt3a, which are proteins involved in the development of hair roots in the human hair follicle dermal papilla cells, the cells were treated with the peptides of the present invention for 24 hours, and then subjected to western blotting using specific antibodies, thereby observing the changes in hair growth-related proteins.
The cells were stabilized by the incubation overnight, and then treated with the peptides at different concentrations (0.1-50 μg/ml) for 24 hours. The cells were treated with the cell lysis buffer to obtain a lysate, followed by protein quantification, and then western blotting was performed with respect to IGF-1, KGF, and Wnt3a.
The test was carried out using anti-IGF-1 antibody (Santa Cruz Biotechnology, USA), anti-KGF antibody (Santa Cruz Biotechnology, USA), and anti-Wnt3a antibody (Santa Cruz Biotechnology, USA).

As to “NH2-Ala-Cys-Arg-Ser-Ala-Ile-Gly-Arg-Pro-Cys-COOH (H-ACRSAIGRPC-OH; cysteine pairing not given here) [SEQ ID NO: 1]”, in assay [1], the “cell proliferation, HFGMC” value was “increased in a concentration-dependent manner”. In the assay on NF-κB, the “nuclear translocation of NF-κB activated by TNF-α treatment” value is “reduced”. Also, the “expression of bone sialoprotein (BSP)” value with bone sialoprotein (BSP) is “increased”. The “cell proliferation, HFDPC” value in assay [2] is on record as “increased in a concentration-dependent manner”. The “expression of DKK-1 increased by DHT” value in the assay with DKK-1 is listed as “reduced”. In addition, the “phosphorylation of ERK” value with Phospho-ERK (pERK) was “increased”. Moreover, the “proliferation of RAW264.7 cells increased with TNF-α treatment” value in the assay on RAW264.7 cells is on record as “reduced”. For the same substance, the “phosphorylation of PI3K by HGFR signal stimulation” value in the assay with Phospho-PI3K is given as “increased”. For the same substance, the “cell proliferation, HUVEC” value in assay [3] was “increased in a concentration-dependent manner”. Moreover, the “mineralization (Alizarin red staining)” value with MC3T3-E1 cells is listed as “increased”. For the same substance, in the assay on PI3K, the “level of PI3K” value is recorded as “increased”. Further, the “expression of IGF-1” value in the assay with IGF-1 is “increased”.
